One series deals with E. coli. In words: K+ release from bacteria stimulated by lysozyme, measured with F4 film. Type of series: cell-based, E. coli JM 109. Particulars: lysozyme added to bacteria in 150 mM NaCl buffer pH 7.4, F4 film. The protocol:
(§1) E. coli JM 109 and B. subtilis 168 were cultured overnight in LB medium (Difco®, Becton, Dickinson and Company, Sparks, Md.) by shaking at 180 rpm at 37° C. The concentration of E. coli and B. subtilis in culture was estimated by measuring the optical density at 600 nm (OD600). OD600 value of 1 indicated a concentration of 5.0×10^8 cfu/mL. After the microorganism density was determined, bacterial cells were collected by centrifuge at 2000×g for 20 minutes at room temperature. Then appropriate densities of bacteria were made using fresh buffer (150 mM NaCl, pH 7.4) to achieve the desired initial concentrations for experiments.
(§2) The F4 film (Example 16) was placed diagonally into quartz cuvettes with 2 mL of bacteria suspension at different densities. […] The potassium ion concentration was calculated from the measured fluorescence ratio (F/F0).
(§3) F4 film was used for both gram positive (i.e. B. subtilis) and negative (i.e. E. coli) bacteria and lysozyme was used as a model drug to stimulate K^+ efflux from the organisms. […] The washed organisms were resuspended in 2 mL of the potassium-free buffer in quartz cuvettes at a concentration range of 1.5×10^10 to 1.0×10^11 cfu/mL F4 was immersed into the above prepared mixtures, and then lysozyme was added into the cuvettes to stimulate the K^+ efflux, which was monitored through the time dependent fluorescence intensity changes of F4 film. […]

In another series the test system is B. subtilis. The description is as above. Particulars: lysozyme added to bacteria in 150 mM NaCl buffer pH 7.4, F4 film. The format is cell-based, B. subtilis 168. How it is done: as §1, §2, §3
The nature of series [1]: Fluorescence titration of 2(a) with KCl in HEPES buffer, Benesi-Hildebrand plot. Type of series: binding. Particulars: HEPES pH 7.2. The protocol:
(§4) To determine sensor responses, 50 μL of 2(a) (Example 10) was dissolved in DMSO resulting in a concentration of 200 μM which was then added into 2 mL of HEPES (10 mM, pH 7.2) buffer. […] Different metal ion concentrations were added into the solution for studying 2(a)'s responses. Although the reaction of the compound and the metal ion was rapid (usually within seconds), the spectra was measured after 2 minutes to ensure stability. 2(a)/metal ion complexes were excited at 561 nm and emissions were collected from 600 to 750 nm.
2(a) is constructed using strong electron-donating (aniline) and electron-withdrawing (TCF) groups, yielding an absorption maximum at 560 nm. The extinction coefficient (s) at 560 nm is 3.84×10^4 M^−1 cm^−1. […] Upon addition of K^+, the fluorescence intensity of 2(a) increases by ca. 4 and 50 fold at K^+ concentrations of 140 mM and 1400 mM (FIGS. 8A and 8B), respectively, resulting in corresponding η of 0.52% and 5.6%. Kd was determined by the Benesi-Hildebrand equation: F0/(F0−F)=F0/(F0−Fcomplex)+F0/(F0−Fcomplex)×Kd×1/[M] (1) where F0 is the integrated fluorescence intensity of a free sensor, F is the observed integrated fluorescence intensity, Fcomplex is the emission of the ligand-metal ion complex, and [M] is the metal ion concentration. When F0/(F0−F) is plotted against 1/[M], the binding constant is given by the ratio intercept/slope. […]

A short description of series [2]: Fluorescence quantum yield against Rhodamine B standard. The format is physicochemical. How it is done:
The fluorescence quantum yields (η) of samples in solutions were recorded by using Rhodamine B in ethanol (η=0.65) excited at 540 nm and were calculated according to the following equation:
[formula] where (ηr) and (ηs) are the fluorescence quantum yields of standards and the samples, respectively. Ar and As are the absorbance of the standards and the measured samples at the excitation wavelength, respectively. Ir and Is are the integrated emission intensities of standards and the samples, respectively. nr and ns are the refractive indices of the corresponding solvents present in the solutions, respectively. The experimental error was approximately 10%.

Series [3] is described as follows: Fluorescence response of sensors to other cations and pH in buffer (selectivity). The protocol:
as §4
2(a) was also tested against physiological concentration levels of the following metal ions: K^+, Na^+, Ca^2+, Mg^2+, Fe^3+, Zn^2+, Mn^2+, and Cu^2+. […] Furthermore, this trend was also present when the concentrations of Na^+, Ca^2+, and Mg^2+ were increased to 140 mM (FIG. 9).
Na^+ is usually an interference ion to K^+ for the typical K^+ probes including PBFI, CD18, C18, and MCC.

Series [4] has as its system U87MG cells. Kind of series: Cytotoxicity by Trypan blue staining. The format is cell-based. How it is done: Cytotoxicity of 2(a) to human glioblastoma U87MG cells was studied using Trypan blue staining. To cell culture medium (100 μL) with eukaryotic cells in a 96 well microplate with 10,000 cells/well that had internalized 2(a) for 2 hours, […] of 0.4% Trypan Blue stain was added and mixed thoroughly with the medium. After standing for 5 min at room temperature (23° C.), the cells were imaged using an optical microscope in bright field mode. Dead cells appeared blue from the Trypan Blue stain, whereas healthy cells appeared transparent as a result of the cell's resistance to stain. The cells were then counted and the ratio of dead cells to live cells was calculated. Each experiment was repeated three times.
(§5) Cytotoxicity of the sensor 1(a) to cells was studied using Trypan blue staining. After 30 minutes internalization of the sensor with cells, more than 97% cells were viable, showing the non-cytotoxicity of 1(a) to the two cell lines under our experimental conditions.

In series [5] the test system is U87MG cells. Kind of series: Dynamic K+ influx and efflux monitored with 2(a) after nigericin. The format is cell-based, human. Particulars: nigericin 20 μM in 20 mM KCl medium. The protocol: 2(a) was further tested for in-situ observation of dynamic potassium ion influx and then efflux through the changes of fluorescence (FIG. 15) stimulated by an ionophore nigericin. Cells internalized with 4 μM of 2(a) at 37° C. for 10 minutes were washed with 20 mM KCl-containing fresh medium. Nigericin (20 μM at its final concentration) was added in 20 mM KCl-containing medium to help K^+ to across cell membrane. Enhanced fluorescence was immediately observed after the addition of nigericin, indicating potassium ion influx occurred. The potassium influx peaked after 3 minutes with an average of fluorescence increase of 370%. After 3 minutes, potassium efflux was observed by the decrease of the fluorescence. The efflux stabilized after 15 minutes, and the fluorescence intensity after the stabilization was about 25% below that of before the stimulation by nigericin. The ionophore nigericin was used to stimulate K^+ influx for yeast Saccharomyces cerevisiae. It was also reported to be a K^+ efflux stimulator for human colorectal adenocarcinoma HT-29 cells.

For series [6], the system named is U87MG cells. In words: Intracellular K+ efflux monitored with 1(a), microplate reader. Particulars: cells loaded with 2 μM 1(a); nigericin 5 μM, bumetanide 10 μM, ouabain 10 μM; 2.5 h. The format is cell-based, human.
Protocol: (§6) U87MG and CP-A cells were seeded onto 96 well plates at 10,000 cells per well and maintained in 100 μL medium overnight. The following day, the cells were loaded with 1(a) (2 μM) for 20 min, then the excess 1(a) was removed by washing with medium. The test substances were added and the experiment was terminated after 2.5 h by washing the cells with physiological NaCl solution. A microplate reader (Molecular Device, Downingtown, Pa.) was used to read the fluorescence intensities from the intracellular 1(a). 444 nm was used to excite the sensor and the emission was measured at 538 nm. The measured fluorescence intensities were corrected with background fluorescence. Each experiment was repeated in triplicate.
(§7) The decrease of the fluorescence intensities indicates the efflux of the intracellular potassium ions from the cells.
Series [7] has as its system CP-A cells. The description is as above. Type of series: cell-based. The note with it: cells loaded with 2 μM 1(a); nigericin 5 μM, bumetanide 10 μM, ouabain 10 μM; 2.5 h.
Protocol: as §6, §7
The test system of series [8] is CP-A cells. Kind of series: Cytotoxicity by Trypan blue staining. Type of series: cell-based. Particulars: 1(a) internalized for 30 minutes. The protocol: as §5
Series [9] can be described thus: Fluorescence titration of 1(a) with KCl in HEPES buffer, Benesi-Hildebrand plot. Type of series: binding. The note with it: 10 mM HEPES pH 7.4, excitation 450 nm, emission 525 nm. The protocol:
FIGS. 17A and 17B show the UV-Vis and emission spectral changes upon the interaction of 1(a) with potassium chloride (KCl) in 10 mM HEPES buffer (pH 7.4). […] This fluorescence change was attributed to photo-induced electron transfer. The lone electron pairs of the amino groups in the triazacryptand ligand quench the emission of the fluorophore of the amino-naphthalimide through PET. After interaction with K^+, the lone electron pairs of the ligand were occupied due to the formation of the ligand-K^+ complex. This change restores the emission of the amino-naphthalimide fluorophore. Fluorescence intensity change at 525 nm was plotted again K^+ concentration, which is illustrated in FIG. 17C. Binding constant K could be determined by the fluorescence spectral change using the Benesi-Hildebrand equation as described above.
Curve fitting of the fluorescence intensity of 1(a) against the reciprocal of the K^+ concentration (1/[K^+]), the Benesi-Hildebrand plot, gives a linear fit (FIG. 17D).

Series [10] deals with U87MG cells. In words: Intracellular K+ influx monitored with 2(a), confocal fluorescence, ImageJ. Type of series: cell-based, human. The note with it: isoproterenol 5 μM with 20 mM KCl in medium, 40 minutes, 37° C.; 2(a) 4 μM. How it is done: 2(a) can also be used to monitor K^+ influx through stimuli. […] The influx stimulator (isoproterenol in KCl-containing PBS buffer) was added. Final concentrations of the added isoproterenol and KCl in the cell culture medium were 5 μM and 20 mM, respectively.

As to lysozyme, the “K^+ efflux from bacteria over time” value with E. coli is “K^+ efflux increased slowly over time”; in the series with B. subtilis it was “K^+ efflux was very fast, within the first 10 minutes”.

`COCCOc1cc(/C=C/C2=C(C#N)C(=C(C#N)C#N)OC2(C)C)ccc1N1CCOc2cc(C)ccc2N2CCOCCOCCN(CCOCCOCC2)c2ccc(C)cc2OCC1` [2(a)]: the results for the “fluorescence intensity increase upon addition of K^+” value in [1] (K^+ 140 mM) and in [1] (K^+ 1400 mM) were “ca. 4 fold” and approximately 50 fold, respectively. For the same compound, the “quantum yield (η)” value in series [2] (K^+ 140 mM) stood at 0.52%; in series [2] (K^+ 1400 mM), 5.6%; in [2] (free form, no K^+), 0.11%. Also, the “selectivity to K^+ against other metal ions” value in series [3] (Na^+, Ca^2+, Mg^2+, Fe^3+, Zn^2+, Mn^2+, Cu^2+ at physiological levels, Na^+, Ca^2+, Mg^2+ also at 140 mM) was “high selectivity”. In addition, in series [3] (pH 5 to 8), the “sensitivity to pH” value was “not sensitive to pH in the range of 5 to 8”. Also, in the series on U87MG cells [4] (human, 2 h), the viable cells entry is listed as “more than 97%”.

`CO[C@@H]1C[C@@H](C[C@H]2CC[C@H](C)[C@H]([C@@H](C)C(=O)O)O2)O[C@]2(O[C@](C)([C@H]3CC[C@@](C)([C@@H]4O[C@@H]([C@H]5O[C@@](O)(CO)[C@H](C)C[C@@H]5C)C[C@@H]4C)O3)C[C@H]2C)[C@@H]1C` [nigericin]: in the series with U87MG cells [5] (efflux stabilized after 15 minutes), the “fluorescence intensity after stabilization, below that before stimulation” value was “about 25%”. Moreover, the “average fluorescence increase at peak of potassium influx” value in the series with U87MG cells [5] (peak after 3 minutes, 2(a) 4 μM) amounted to 370%. The “K^+ efflux, decrease of 1(a) fluorescence” value in the series on U87MG cells [6] and in the series on CP-A cells [7] was “not an efficient K^+ efflux stimulator” in each case.

Consider `C=CCN1C(=O)c2cccc3c(NCCc4ccc(N5CCOc6cc(C)ccc6N6CCOCCOCCN(CCOCCOCC6)c6ccc(C)cc6OCC5)c(OCCOC)c4)ccc(c23)C1=O` [1(a)], for which, in series [3] (1(a), Na^+, Ca^2+, Mg^2+, Fe^3+, Zn^2+, Mn^2+, Cu^2+ at physiological concentrations (FIG. 17E)), the “selectivity against biologically relevant metal ions” value is reported as “high selectivity”. Further, the viable cells result in the series with U87MG cells [4] (1(a) internalized for 30 minutes, Trypan blue) is given as “more than 97%”; in the series with CP-A cells [8] it was “more than 97%”. Also, in series [9], the “binding constant (K)” value is 0.133 mM⁻¹.

On to `CC(C)NCC(O)c1ccc(O)c(O)c1` (stereo not shown) [isoproterenol], for which, in the series on U87MG cells [10], the “increase of average fluorescence intensity of cells after treatment” value stood at 33%.
